The subject of assay [1] is MCF7. Put plainly: Cytotoxicity against human MCF7 cells assessed as cell viability at 100 uM after 72 hrs by MTS assay. To be noted: MCF7, 72 h.
For assay [2], the system named is HT-29. Briefly: Cytotoxicity against human HT-29 cells assessed as cell viability at 100 uM after 72 hrs by MTS assay. To be noted: HT-29, 72 h.
Assay [3] concerns HepG2. Briefly: Cytotoxicity against human HepG2 cells assessed as cell viability at 100 uM after 72 hrs by MTS assay. The note with it: HepG2, 72 h.
The subject of assay [4] is HepG2. Briefly: Cytotoxicity against human HepG2 cells assessed as cell viability at 25 uM after 24 hrs by MTS assay. Type of assay: functional. To be noted: HepG2, 24 h, read-out: Activity. For orientation: Tetrazolium assays rely on reduction of a dye to a coloured formazan, in cell work by metabolically active cells.
For assay [5], the system named is MCF7. Put plainly: Cytotoxicity against human MCF7 cells assessed as cell viability at 25 uM after 72 hrs by MTS assay. To be noted: MCF7, 72 h.
Assay [6] relates to HT-29. Put plainly: Cytotoxicity against human HT-29 cells assessed as cell viability at 25 uM after 72 hrs by MTS assay. To be noted: HT-29, 72 h.
In assay [7] the test system is MCF7. Briefly: Cytotoxicity against human MCF7 cells at 25 uM after 72 hrs by MTS assay.
The test system of assay [8] is HT-29. Put plainly: Cytotoxicity against human HT-29 cells at 25 uM after 72 hrs by MTS assay.
In assay [9] the test system is HepG2. Briefly: Cytotoxicity against human HepG2 cells at 25 uM after 72 hrs by MTS assay.

On to `C#CCO[C@H]1C[C@H](N)[C@@H](O)[C@H](C)O1`, for which the viability at 100 µM in assay [1] was 123%; in assay [2], 91%; in assay [3] it was 105%.
Consider `OCC#Cc1c(-c2ccccc2)oc2ccccc12`, for which the viability at 25 µM in assay [4] was 88%; in assay [5] it was 86%; in assay [6] it was 86%. The viability at 100 µM in [1] was 2%; in assay [2] it was under 1%; in assay [3], under 1%.
On to `Cc1ccc(S(=O)(=O)n2c(-c3ccccc3)cc3ccccc32)cc1`, for which the viability at 25 µM in assay [4] amounted to 54%; in [6] it was 39%. Moreover, the viability at 100 µM in assay [1] was 71%; in assay [2] it was 12%; in [3] it was 37%.
As for `OCC#Cc1c(-c2ccccc2)sc2ccccc12`, the viability at 25 µM in assay [4] stood at 97%; in [5], 90%; in assay [6] it was 68%. For the same compound, the viability at 100 µM stood at 37% in [1], 8% in [2] and 17% in assay [3].
Consider `Cc1ccc(S(=O)(=O)n2c(-c3ccccc3)c(I)c3ccccc32)cc1`, for which the viability at 100 µM is 114% in [1], 82% in [2] and 90% in assay [3].
Turning to `c1ccc(-c2cc3ccccc3[nH]2)cc1` [2-PHENYL-1H-INDOLE], the viability at 100 µM was determined as 72% in [1], 75% in [2] and 71% in [3].
For the compound `c1ccc(-c2cc3ccccc3o2)cc1`, the viability at 100 µM in assay [1] was determined as 107%; in assay [2], 80%; in assay [3] it was 88%.
With `Ic1c(-c2ccccc2)[nH]c2ccccc12`, the results for the viability at 100 µM in assay [1], in assay [2] and in assay [3] were 103%, 91% and 91%, respectively.
On to `Cc1ccc(S(=O)(=O)n2c(-c3ccccc3)c(C#CCO)c3ccccc32)cc1`, for which the values for the viability at 25 µM in assay [4], in [5] and in assay [6] were 58%, 87% and 26%, respectively. Besides, the Activity in assay [7], in assay [8] and in [9] was 100% in each case. Besides, the viability at 100 µM stood at 55% in assay [1], 9% in [2] and 37% in [3].
Consider `Ic1c(-c2ccccc2)oc2ccccc12`, for which the viability at 100 µM in assay [1] came out at 128%; in assay [2] it was 97%; in assay [3] it was 84%.
For the compound `OCC#Cc1c(-c2ccccc2)[nH]c2ccccc12`, the viability at 25 µM in assay [4] is 87%; in assay [5] it was 121%; in assay [6] it was 81%. Further, the Activity in assay [7], in assay [8] and in assay [9] was 100% throughout. For the same compound, the viability at 100 µM in assay [1] was found to be 109%; in [2], 79%; in assay [3] it was 87%.
For the compound `C#CCO[C@H]1C[C@H](N)[C@H](O)[C@H](C)O1`, the viability at 100 µM in [1] was 109%; in assay [2], 96%; in assay [3], 101%.
With `c1ccc(-c2cc3ccccc3s2)cc1`, the viability at 100 µM in [1] turned out to be 113%; in assay [2] it was 81%; in [3], 88%.
On to `C#CCO[C@H]1CC[C@H](N)[C@H](C)O1`, for which the results for the viability at 100 µM in assay [1], in assay [2] and in assay [3] were 107%, 99% and 112%, respectively.

Source of the values: ChEMBL document CHEMBL1641417, “Cytotoxicity and topoisomerase I/II inhibition of glycosylated 2-phenyl-indoles, 2-phenyl-benzo[b]thiophenes and 2-phenyl-benzo[b]furans” (Bioorg Med Chem, 2011).
